Reference: patent US12533341B2, “Small molecule inhibitors of voltage-gated sodium channel 1.7 and methods of using same” (Duke University, priority 2019, dated 2026)
“Also recorded” adds a separate entry of the source. Like-named read-outs stand apart in the source and are kept apart here.

Experiments:
[1] = tested on: formalin-induced inflammatory pain; experiment: Formalin-induced nociceptive behavioral test; format: in vivo, mouse; settings: mice
Procedure: The formalin test was conducted following our previously published protocol (Chen, Ji, et al. 2018; Neurosci Bull; 34: 98-108). The animals were acclimatized in a transparent acrylic observation chamber for 2 days before test. Vehicle or active compound were administered intrathecally, intraperitoneally, or intraplantarly, 30 min later followed by an intraplantar injection of 20 μL of 5% formalin. After the formalin injection, mice were immediately placed back in the observation chamber, and videoed for 40 min. The videos were analyzed after experiments in a double blinded way. We assessed formalin-evoked spontaneous pain by measuring the time (in seconds) mice spent on licking or flinching the affected paw every 5 min for […]. Phase I and Phase II were defined as periods of 0-10 min and 10-40 min, respectively.
For intrathecal injection, spinal cord puncture was made by a Hamilton microsyringe (Hamilton Company, Reno, Nevada) with a 30-G needle between the L5 and L6 level to deliver reagents (5 μL) to the cerebral spinal fluid. For intraperitoneal injection, Vehicle or drug was injected into peritoneal with a 30-G needle. For intraplantar injection, 20 μL vehicle or drug was injected into the surface of the hind paw.

[2] = tested on: histamine-induced acute itch; experiment: Histamine-induced itch model; format: in vivo, mouse; settings: listed as DA-0218
Procedure: Itch behavior was tested blindly. Mice were habituated to the testing environment daily for at least two days before testing. Animals were shaved at the back of the neck in an area of approximately 15×10 mm on the day before the injection of pruritic agent. Animals were put in small plastic chambers (14×18×12 cm) on an elevated metal mesh floor and allowed 30 min for habituation before examination. Mice were then briefly removed from the chamber and given an intradermal injection (50 μL) of 500 μg of histamine in the nape of the neck. After the injection, mouse behaviors were video-recorded and the number of scratches in every 5 min for 30 min was counted. A scratch was counted when a mouse lifted its hindpaw to scratch the shaved region and returned the paw to the floor or to the mouth.

[3] = tested on: human dorsal root ganglion (DRG) neurons; experiment: Patch-clamp of transient sodium currents in human DRG neurons; format: cell-based
Procedure: Non-diseased human DRGs were obtained from donors through NDRI with permission of exemption from Duke IRB. Postmortem L3-L5 DRGs were dissected and delivered in ice-cold culture medium to the laboratory at Duke University within 24-72 hours of donor's death. Upon the delivery, DRGs were rapidly dissected from nerve roots and minced in a calcium-free HBSS (Gibco). DRGs were digested at 37° C. in a humidified 02 incubator for 120 min with collagenase Type II (Worthington, 285 units/mg, 12 mg/mL final concentration) and dispase II (Roche, 1 unit/mg, 20 mg/mL) in HBSS buffer. DRGs were mechanically dissociated using fire-polished pipettes, filtered through a […] nylon mesh and centrifuged (500×g for 5 min). The pellet was resuspended, plated on 0.5 mg/mL poly-D-lysine-coated glass coverslips, and cells were grown in Neurobasal medium supplemented with 10% FBS, 2% B-27 supplement, and 1% penicillin/streptomycin. Patch clamp recordings were conducted in small-diameter (<55 μm) DRG neurons (PMID: 26479925).
Whole-cell patch-clamp recordings were conducted at room temperature. Patch pipettes pulled from borosilicate capillaries (World Precision Instruments, Inc., Sarasota, FL) were used to record transient Na currents with an Axopatch-200B amplifier with a Digidata 1440A (Axon Instruments, Sunnyvale CA). The resistance was set to 3-4 MΩ when filled with pipette solution. […]

[4] = tested on: mouse dorsal root ganglion (DRG) neurons; experiment: Patch-clamp of transient sodium currents in mouse DRG neurons (naive and paclitaxel-pretreated); format: cell-based; settings: for inhibition at 10 µM: Mus musculus, DRG neuron
Procedure: Mouse DRGs were removed aseptically from mice (4-6 weeks) and incubated with collagenase (1.25 mg/mL, Roche)/dispase-II (2.4 units/mL, Roche) in HBSS buffer at 37° C. for 90 min. Cells were mechanically dissociated with a flame polished Pasteur pipette in the presence of 0.05% DNAse I (Sigma). DRG cells were plated on 0.5 mg/mL poly-D-lysine-coated glass cover slips and grown in a neurobasal defined medium (with 10% FBS, 2% B27 supplement, Invitrogen) with 5 μM AraC and 5% carbon dioxide at 36.5° C. DRG neurons were grown for 24 hours before use. Patch clamp recordings were conducted in small-diameter (<25 μm) DRG neurons.
(§1) Whole-cell patch-clamp recordings were conducted at room temperature. Patch pipettes pulled from borosilicate capillaries (World Precision Instruments, Inc., Sarasota, FL) were used to record transient Na currents with an Axopatch-200B amplifier with a Digidata 1440A (Axon Instruments, Sunnyvale CA). The resistance was set to 3-4 MΩ when filled with pipette solution. The pipette solution contained (in mmol/L): CsCl 130, NaCl 9, MgCl2 1, EGTA 10, HEPES 10, adjusted to pH 7.3 with CsOH. The external solution for recording transient Na^+ currents contained (in mmol/L): NaCl 131, TEACl 10, CsCl 10, CaCl2) 1, MgCl2 2, CdCl2 0.3, 4-aminopyridine 3, HEPES 10, glucose 10, adjusted to pH 7.4 with NaOH. The recording chamber (300 μL) was continuously superfused at 3-4 mL/min. Series resistance was compensated (>80%) and leak subtraction was performed. Data were low-pass-filtered at 2 kHz and sampled at 10 kHz. pClamp10 (Axon Instruments) software was used during experiments and analysis. In voltage-clamp experiments, transient Na+ currents were evoked by a test pulse to 0 mV from the holding potential (−70 mV).

hNav1.5 = target: T1, hNav1.5 (Homo sapiens, UniProt Q14524); experiment: Whole-cell patch-clamp of sodium currents in Nav1.5-transfected HEK293 cells; format: cell-based; settings: FIG. 4D, E
T1 construct: expressed in transfected cells; host or cells: HEK293 (ATCC), transient transfection with Lipofectamine 2000
Procedure: HEK-hNav1.7 stable cell line was purchased from SB Drug Discovery (Glasgow, United Kingdom). Human embryonic kidney 293 (HEK293) cells were obtained from the ATCC and maintained at the Duke cell culture facility. Cells were cultured in high-glucose (4.5 g/L) DMEM containing 10% (v/v) FBS (Gibco) and streptomycin/penicillin. For Nav1.7-expressing HEK293 cells, an additional antibiotic, blasticidin, was included. hNav1.5 transfection was performed by Lipofectamine 2000 at 70% confluence using 2 μg cDNA. The transfected cells were cultured in the same growth medium for 48 h before biochemical or electrophysiological studies.
as §1, with “Series resistance was compensated (>80%) and leak subtraction was performed. Data were low-pass-filtered at 2 kHz and sampled at 10 kHz. pClamp10 (Axon Instruments) software was used during experiments and analysis. In voltage-clamp experiments, transient Na+ currents were evoked by a test pulse to 0 mV from the holding potential (−70 mV).” left out

T1 sequence (Q14524 whole entry): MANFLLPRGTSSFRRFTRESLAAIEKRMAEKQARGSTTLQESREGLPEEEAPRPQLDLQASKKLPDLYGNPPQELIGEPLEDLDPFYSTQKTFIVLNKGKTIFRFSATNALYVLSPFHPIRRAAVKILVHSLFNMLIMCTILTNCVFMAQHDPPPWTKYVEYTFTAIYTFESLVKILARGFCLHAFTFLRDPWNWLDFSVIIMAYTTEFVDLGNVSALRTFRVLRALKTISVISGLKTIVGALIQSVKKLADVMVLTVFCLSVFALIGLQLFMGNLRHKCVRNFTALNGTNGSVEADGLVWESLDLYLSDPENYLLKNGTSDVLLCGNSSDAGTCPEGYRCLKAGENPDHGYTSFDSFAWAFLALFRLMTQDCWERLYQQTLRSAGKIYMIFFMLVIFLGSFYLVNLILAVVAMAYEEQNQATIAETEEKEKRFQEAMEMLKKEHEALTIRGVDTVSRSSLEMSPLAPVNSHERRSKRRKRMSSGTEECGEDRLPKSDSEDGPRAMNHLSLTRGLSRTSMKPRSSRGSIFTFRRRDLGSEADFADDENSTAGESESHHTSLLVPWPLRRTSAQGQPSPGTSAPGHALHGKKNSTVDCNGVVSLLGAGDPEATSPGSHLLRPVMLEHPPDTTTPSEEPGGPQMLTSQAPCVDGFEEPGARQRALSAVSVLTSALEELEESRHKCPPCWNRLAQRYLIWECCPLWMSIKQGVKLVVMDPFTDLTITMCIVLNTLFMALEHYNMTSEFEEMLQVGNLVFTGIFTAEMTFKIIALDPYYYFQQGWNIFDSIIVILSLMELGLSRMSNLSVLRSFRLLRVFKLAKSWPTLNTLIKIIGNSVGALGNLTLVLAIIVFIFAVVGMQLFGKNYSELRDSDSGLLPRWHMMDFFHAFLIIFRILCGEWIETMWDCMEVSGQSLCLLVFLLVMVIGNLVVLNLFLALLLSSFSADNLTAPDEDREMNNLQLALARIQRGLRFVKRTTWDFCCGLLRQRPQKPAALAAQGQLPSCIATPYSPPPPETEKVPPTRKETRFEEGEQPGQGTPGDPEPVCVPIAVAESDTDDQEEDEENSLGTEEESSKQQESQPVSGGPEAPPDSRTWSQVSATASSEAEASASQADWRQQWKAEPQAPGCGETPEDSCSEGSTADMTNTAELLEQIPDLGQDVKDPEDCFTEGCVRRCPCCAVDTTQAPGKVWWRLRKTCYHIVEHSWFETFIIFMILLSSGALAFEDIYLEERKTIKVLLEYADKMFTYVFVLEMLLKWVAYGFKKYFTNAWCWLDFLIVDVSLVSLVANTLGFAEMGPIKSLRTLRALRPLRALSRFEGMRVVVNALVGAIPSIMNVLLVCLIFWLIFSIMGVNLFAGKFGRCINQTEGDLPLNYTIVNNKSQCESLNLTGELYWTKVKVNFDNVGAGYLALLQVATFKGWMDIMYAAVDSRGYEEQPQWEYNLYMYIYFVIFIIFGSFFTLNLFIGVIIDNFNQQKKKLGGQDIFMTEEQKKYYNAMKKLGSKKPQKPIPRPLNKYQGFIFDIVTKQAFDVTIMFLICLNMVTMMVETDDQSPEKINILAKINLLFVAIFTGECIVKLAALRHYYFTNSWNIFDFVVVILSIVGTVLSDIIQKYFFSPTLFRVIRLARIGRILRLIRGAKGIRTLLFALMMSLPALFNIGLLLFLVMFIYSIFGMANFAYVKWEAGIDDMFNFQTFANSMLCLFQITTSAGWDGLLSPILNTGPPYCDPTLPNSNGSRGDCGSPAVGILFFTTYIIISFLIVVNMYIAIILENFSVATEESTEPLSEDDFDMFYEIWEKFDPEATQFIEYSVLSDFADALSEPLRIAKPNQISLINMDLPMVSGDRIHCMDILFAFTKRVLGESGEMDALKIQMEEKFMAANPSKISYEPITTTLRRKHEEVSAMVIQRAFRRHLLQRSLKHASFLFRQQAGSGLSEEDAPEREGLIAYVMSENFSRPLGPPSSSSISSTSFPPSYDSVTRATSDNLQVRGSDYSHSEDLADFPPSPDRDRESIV

In the case of O=C(CC(c1cccc(Oc2ccccc2)c1)c1cn(Cc2ccccc2)c2ccccc12)NCCN1CCCC1 (stereo not drawn) [Compound 9, 3-(1-benzyl-1H-indol-3-yl)-3-(3-phenoxyphenyl)-N-(2-(pyrrolidin-1-yl)ethyl)propanamide], the “inhibition of formalin-induced pain in Phase II” value ([1]; intraperitoneal 30 mg/kg) is reported as 76%, the “inhibition of formalin-induced pain in Phase II” value ([1]; intraplantar 60 nmol) is reported as “significant inhibition” and the “effect on formalin Phase I response” value ([1]; intrathecal 30 nmol) is reported as “reduced Phase I response”. The “inhibition of formalin-induced second-phase (Phase II) pain” value ([1]; intrathecal (3, 10 and 30 nmol)) was 80%, the “effect on histamine-induced scratches” value ([2]; intrathecal 30 nmol, 500 μg histamine intradermal, 30 min) was “statistically significant reduction; also recorded: effective against histamine-induced itch” and the “effect on histamine-induced scratch bouts” value ([2]; intrathecal, dose response) was “inhibited histamine-induced acute itch; also recorded: dose-dependent reduction”. For the same molecule, the “mean relative current at the last measurement” value (shortened to “mean relative current”) [3] was 73 % of the baseline, the “relative current difference (inhibition of peak INaT)” value ([3]; 10 uM) was 0.22 and the “time to peak inhibition after the drug incubation” value ([4]; 10 μM, mouse DRG neurons) was 10 min. For the same molecule, the inhibition at 10 µM ([4]; 10 μM, naive (non-treated) mouse DRG neurons, read-out: inhibition of peak INaT (sodium currents)) was 17%, the inhibition at 10 µM ([4]; 10 μM, paclitaxel pretreated mouse DRG neurons, read-out: inhibition of sodium currents) was 44% and the “mean relative current” value ([4]; mouse DRG neurons, naive) was 72 % of the baseline. The “mean relative current” value ([4]; mouse DRG neurons, paclitaxel-treated) was 43 % of the baseline, the “effect on sodium currents in Nav1.5-expressing HEK293 cells” value (hNav1.5) was “no effects” and the “effect on sodium currents in Nav1.5-expressing HEK293 cells” value (hNav1.5; listed as DA-0218) was “no effect”.
